Measured values as given in patent publication US4879381A, “7-(substituted or unsubstituted amino) 3-substituted methyl-^3 cephem-4-carboxylic acid” (Toyoma Chemical Company, Ltd., priority 1980, dated 1989).
Structures can show the parent of a compound that is named as a salt. Where two headings read alike, the source gives them in different places.

Legend:
in vivo = conditions: mouse, intravenous, mice
Text: Three test compounds were introvenously administered to mice (ICR, male, 4 weeks old) to test their acute toxicities.

E. coli NIHJ = assay: Antibacterial activity (MIC, agar plate, standard method of the Japanese Chemotherapeutic Society); assay type: cell-based; conditions: Escherichia coli, 10^4 cells/plate, 37° C., 20 hours, read-out: MIC
Procedure: (§1) According to the standard method of the Japanese Chemotherapeutic Society [Chemotherapy, Vol. 23, Pages 1-2 (1975)], a culture obtained by cultivating bacteria in Heart Infusion broth (manufactured by Eken Kagakusha) at 37° C. for 20 hours was inoculated into a Heart Infusion agar medium (manufactured by Eiken Kagakusha) and cultivated at 37° C. for 20 hours, after which the growth of bacteria was examined visually. The minimum inhibitory concentration at which the bacterial growth was inhibited was taken as MIC (μg/ml). The amount of the inoculated bacteria was 10^4 cells/plate (10^6 cells/ml).

[1] = test system: Pro. vulgaris GN76 (Cephalosporinase-producing bacteria); assay: Antibacterial activity (MIC, agar plate); assay type: cell-based; conditions: Proteus vulgaris; Pro. vulgaris GN76 (cephalosporinase-producing); 10^4 cells/plate, 37° C., 20 hours; read-out: MIC
Procedure: as §1

[2] = test system: E. coli TK3 (Penicillinase-producing bacteria); assay: Antibacterial activity (MIC, agar plate); assay type: cell-based; conditions: Escherichia coli; E. coli TK3 (penicillinase-producing); 10^4 cells/plate, 37° C., 20 hours; read-out: MIC
Procedure: as §1

Ent. cloacae IID977 = assay: Antibacterial activity (MIC, agar plate); assay type: cell-based; conditions: Enterobacter cloacae, 10^4 cells/plate, 37° C., 20 hours, read-out: MIC
Procedure: as §1

Kl. pneumoniae Y-50 = assay: Antibacterial activity (MIC, agar plate); assay type: cell-based; conditions: Klebsiella pneumoniae, Y50, 10^4 cells/plate, 37° C., 20 hours, read-out: MIC
Procedure: as §1

Klebsiella spp Y-72 = assay: Antibacterial activity (MIC, agar plate); assay type: cell-based
Procedure: as §1

Pro. mirabilis T-100 = assay: Antibacterial activity (MIC, agar plate); assay type: cell-based; conditions: Proteus mirabilis, T100, 10^4 cells/plate, 37° C., 20 hours, read-out: MIC
Procedure: as §1

Ser. marcescens IID620 = assay: Antibacterial activity (MIC, agar plate); assay type: cell-based; conditions: Serratia marcescens, IID620, 20 h
Procedure: as §1

Pro. mirabilis T-111 = assay: Antibacterial activity (MIC, agar plate); assay type: cell-based; conditions: Proteus mirabilis, T111, 20 h
Procedure: as §1

Al. faecalis B-1 = assay: Antibacterial activity (MIC, agar plate); assay type: cell-based; conditions: Alcaligenes faecalis
Procedure: as §1

Aci. calcoaceticus A-6 = assay: Antibacterial activity (MIC, agar plate); assay type: cell-based; conditions: Acinetobacter calcoaceticus, A6, 10^4 cells/plate, 37° C., 20 hours, read-out: MIC
Procedure: as §1

Kl. pneumoniae Y-41 = assay: Antibacterial activity (MIC, agar plate); assay type: cell-based; conditions: Klebsiella pneumoniae, Y41; Kl. pneumoniae Y-41; 10^4 cells/plate, 37° C., 20 hours; read-out: MIC
Procedure: as §1

Pro. morganii T-216 = assay: Antibacterial activity (MIC, agar plate); assay type: cell-based; conditions: Morganella morganii, T216, 20 h
Procedure: as §1

Compound | LD50 (in vivo) [mg/kg] | MIC (E. coli NIHJ) [µg/mL] | MIC [1] [µg/mL] | MIC [2] [µg/mL] | MIC (Ent. cloacae IID977) [µg/mL] | MIC (Kl. pneumoniae Y-50) [µg/mL] | MIC (Klebsiella spp Y-72; Y72, Klebsiella spp Y-72, 10^4 cells/plate, 37° C., 20 hours, read-out: MIC) [µg/mL] | MIC (Pro. mirabilis T-100) [µg/mL] | MIC (Ser. marcescens IID620) [µg/mL] | MIC (Pro. mirabilis T-111) [µg/mL] | MIC (Al. faecalis B-1; B1, Al. faecalis B-1, 10^4 cells/plate, 37° C., 20 hours, read-out: MIC) [µg/mL] | MIC (Aci. calcoaceticus A-6) [µg/mL] | MIC (Kl. pneumoniae Y-41) [µg/mL] | MIC (Pro. morganii T-216) [µg/mL] | MIC (Klebsiella spp Y-72; Klebsiella, Y72, 20 h) [µg/mL] | MIC (Al. faecalis B-1; B1, 20 h) [µg/mL]
Cc1nnn(CC2=C(C(=O)O)N3C(=O)C(NC(=O)Cc4csc(N)n4)C3SC2)n1 (stereo not drawn) | > 3000 | – | – | – | – | – | – | – | – | – | – | – | – | – | – | –
CO/N=C(\C(=O)NC1C(=O)N2C(C(=O)O)=C(Cc3ccc(O)cc3)CSC12)c1csc(N)n1 (stereo not drawn) [D, Trifluoroacetic acid salt of 7-[2-(2-aminothiazol-4-yl)-2-(syn)-methoxyiminoacetamido]-3-(4-hydroxybenzyl)-Δ^3-cephem-4-carboxylic acid] | – | ≤ 0.1 | 1.56 | 1.56 | 25 | 0.2 | 6.25 | ≤ 0.1 | 3.13 | 0.78 | 25 | 6.25 | 0.78 | 0.78 | – | –
Cc1nnn(CC2=C(C(=O)O)N3C(=O)C(NC(=O)/C(=N\O)c4csc(N)n4)C3SC2)n1 (stereo not drawn) [E, Trifluoroacetic acid salt of 7-[2-(2-aminothiazol-4-yl)-2-(syn)-hydroxyiminoacetamido]-3-(2-(5-methyl-1,2,3,4-tetrazolyl)methyl]-Δ^3-cephem-4-carboxylic acid] | – | ≤ 0.1 | 6.25 | 0.78 | 6.25 | ≤ 0.1 | – | ≤ 0.1 | 3.13 | 0.39 | – | 50 | 0.2 | ≤ 0.1 | 3.13 | 3.13
